# In patent US20140314788A1, “MODULATION OF HISTONE DEACETYLASES FOR THE TREATMENT OF METABOLIC DISEASE, METHODS AND COMPOSITIONS RELATED THERETO” (Salk Institute for Biological Studies, priority 2010, published 2014):
# “Also recorded” adds a separate entry of the source.
# Tests used:
# [1] = test system: FOXO1; assay: FOXO1 acetylation immunoblot in HEK293T cells treated with TSA; assay type: cell-based; conditions: HEK293T cells with Myc-Foxo1 WT, 1 uM TSA for 2 h
# Description: (C) HEK293T cells were transfected with Myc-Foxo1 WT construct and cells were treated with 1 uM TSA and/or 10 mM NAM for 2 h. Cell lysates were immunoblotted with indicated antibodies.
# (§1) HEK293T, Huh7, HepG2, C2C12, and U2OS cells were obtained from ATCC. RNAi SMARTpool human LKB1 (Dharmacon) or RNAi negative control (Invitrogen) used at 20 nM final concentration and transfected using RNAiMAX transfection reagent (Invitrogen). Knockdowns were carried out for 72 hrs. Cells were treated with 1 uM TSA or 10 mM NAM (Sigma), Cells were treated with 2 mM AICAR (Toronto Research Chemicals) or 2 mM Phenformin (Sigma).
# [2] = test system: GFP-HDAC5; assay: GFP-HDAC5 nuclear translocation in primary mouse hepatocytes (confocal microscopy); assay type: cell-based; conditions: 100 nM glucagon
# [3] = test system: endogenous Class IIa HDACs; assay: Subcellular fractionation of primary hepatocytes; assay type: cell-based, mouse; conditions: 100 nM Glucagon or 10 uM Forskolin for 1 h
# [4] = test system: HDAC4/5/7; assay: Immunoblot of HDAC phosphorylation in liver lysates of glucagon-injected mice; assay type: in vivo, mouse; conditions: mice starved 6 h, glucagon for 45 minutes
# Description: (A) Mice were starved for 6 h and then treated with saline, glucagon (Gluca) for 45 minutes, or refed for 3 h. Liver lysates were immunoblotted with indicated antibodies.
# [5] = test system: HDAC4/5/7; assay: Immunoblot of HDAC phosphorylation in primary mouse hepatocytes treated with glucagon or forskolin; assay type: cell-based; conditions: 100 nM glucagon or 10 uM forskolin
# [6] = test system: HDAC4/5/7; assay: Immunoblot of HDAC phosphorylation in primary hepatocytes treated with A769662; assay type: cell-based, mouse; conditions: 1 hr, particularly on the Ser498 sites
# Description: (F) Lysates from primary hepatocytes treated with either AMPK agonist A769662 or Vehicle (DMSO) for 1 hr and immunoblotted with indicated antibodies.
# (§2) Primary hepatocytes were derived from C57BL/6J mice and maintained in serum free Media 199. Cells were transduced 24 hrs after harvesting. Knock-down and over-expression studies in hepatocytes were done by infecting cells at 5 PFUs/cell. All adenoviral shRNA knockdowns were carried out for 72 hrs. For subcellular fractionation, cells were treated as indicated, washed 3 times with PBS and lysed utilizing NE-PER Cell Fractionation Kit (Pierce). Primary hepatocytes were treated with 10 uM Forksolin (Sigma) and 100 nM Glucagon (Novo Nordisk), 100 nM insulin (Lilly) at indicated times.
# [7] = test system: db/db mice; assay: Blood glucose in db/db mice treated with MC1568; assay type: in vivo, mouse; conditions: 50 mg/kg intraperitoneally once a day for 4 days, fasted for 22 hours (4 hrs after final treatment)
# Description: (§3) Blood glucose was measured on mice fasted for 22 hours (4 hrs following the final treatment).
# [8] = test system: G6PAse and PEPCK mRNA; assay: qPCR of G6PAse and PEPCK mRNA in primary hepatocytes pre-treated with MC1568; assay type: cell-based, mouse; conditions: 5 uM MC1568 for 14 hours, then 10 uM Forskolin or 100 nM Glucagon for 4 hrs; normalized to cyclophilin
# Description: as §3, §2
# mRNA from primary hepatocytes was isolated using RNAeasy (Qiagen) kit and reverse transcribed using SuperScript II Reverse Transcriptase. Three samples/mice were used per condition and qPCR was done in technical triplicate for each sample. qPCR reaction was carried out using Syber GreenER (Invitrogen). All qPCR results are representative of 3 separate experiments.
# [9] = test system: HDAC4/5/7; assay: Immunoblot of HDAC phosphorylation in livers of metformin-treated mice; assay type: in vivo; conditions: mouse liver, 250 mg/kg metformin intraperitoneally for 1 h
# Description: (D) Immunoblot of lysates from murine livers from LKB1+/+ or LKB1lox/lox mice deleted for hepatic LKB1 and treated with either 250 mg/kg metformin, or saline alone for 1 h.
# To induce Cre-mediated deletion in Albumin-creERT2 mice, mice were intraperitoneally injected with 1 mg/mouse of Tamoxifen (SIGMA) for 5 consecutive days. Ad-Cre mediated deletion in LBK1lox/lox mice was done by tail vein injection of 1×10^9 PFUs/mouse in 8 week old males (FIG. 1D). […] For metformin experiments, mice injected intraperitoneally with 250 mg/kg Metformin in 0.9% saline for 1 h.
# [10] = test system: HDACs4/5; assay: Immunoblot of HDAC phosphorylation in HepG2 or Huh7 cells treated with phenformin; assay type: cell-based, human; conditions: 2 mM Phenformin for 1 hr
# Description: (C) Lysates of HepG2 or Huh7 cells transfected with indicated siRNA pools and treated with either 2 mM Phenformin or vehicle for 1 hr and subjected to immunoblotting.
# as §1
compound,measurement,setting,value
CC(/C=C/C(=O)NO)=C\[C@@H](C)C(=O)c1ccc(N(C)C)cc1 [trichostatin A],FOXO1 acetylation,[1],increased FOXO1 acetylation
glucagon,time to full nuclear translocation of GFP-tagged HDAC5,[2],≤ 30 min
same,localization of endogenous Class IIa HDACs,[3],translocate fully into the nucleus
same,HDAC4/5/7 phosphorylation in liver,[4],reduced HDAC4/5/7 phosphorylation
same,endogenous HDAC4/5/7 phosphorylation,[5],rapid loss of endogenous HDAC4/5/7 phosphorylation
N#Cc1c(O)c2c(-c3ccc(-c4ccccc4O)cc3)csc2[nH]c1=O [A769662],HDAC4/5/7 phosphorylation,[6],increased HDAC4/5/7 phosphorylation
Cn1c(/C=C/C(=O)NO)ccc1/C=C/C(=O)c1cccc(F)c1 [MC1568],blood glucose,[7],lowers blood glucose; also recorded: suppression
same,"expression of G6PAse (mRNA, qPCR)",[8],suppresses the expression; also recorded: suppression
same,"expression of PEPCK (mRNA, qPCR)",[8],suppresses the expression; also recorded: suppression
CN(C)C(=N)N=C(N)N [metformin],Phospho-Ser498 in HDAC4/5/7,[9],increase in Phospho-Ser498
[H]/N=C(/N)N/C(=N/[H])NCCc1ccccc1 [phenformin],phosphorylation on Ser498 of HDACs4/5,[10],LKB1-dependent increase in phosphorylation
